Results: EP1226131B1, “ISOXAZOLECARBOXAMIDE DERIVATIVES” (RECORDATI INDUSTRIA CHIMICA E FARMACEUTICA S.p.a., priority 1999, dated 2001)
Like-named read-outs stand apart in the source and are kept apart here.

Columns and labels:
[1] = system: urethral contractions (UP) induced by noradrenaline (NA); test: Urethral contractions induced by noradrenaline injection in anaesthetised dogs, i.v. administration; format: in vivo; conditions: dog; for ED50: Canis lupus familiaris, iv, dose inhibiting by 50% urethral contractions induced by noradrenaline, read-out: UP ID50 NA; for R1 (DBP/NA): ratio DBP ED25 / UP ID50 NA
Experimental: (§1) The experiments were performed according to the method of Imagawa J. et al., J Pharmacol. Methods 22, 103-111 (1989), with substantial modifications, as follows: adult male beagle dogs, weighing 8-10 kg, were anaesthetised with pentobarbital sodium (30 mg/kg i.v. and 2 mg/kg/h i.v.), intubated and spontaneously ventilated with room air. In order to monitor systemic blood pressure (BP), a polyethylene (PE) catheter was introduced into the aortic arch through the left femoral artery. A collateral of the left femoral vein was cannulated for infusion of anaesthetic, and the right femoral vein was cannulated for administration of the compounds. For intraarterial (i.a.) injection of noradrenaline (NA), a PE catheter was introduced into the lower portion of the abdominal aorta via the right external iliac artery. Through such procedure, NA was selectively distributed to the lower urinary tract. A paramedian vertical suprapubic incision extending from the base of the pelvis to the mid-abdominal region was made and the bladder and the prostate were exposed. The bladder was manually emptied with a syringe. […] The distal end of the right or left branch of the nerve was placed on a bipolar platinum electrode. Prostatic urethral pressure was monitored with a Mikro-tip cathe[…]) introduced into the bladder via the external urethral meatus, and withdrawn until the pressure transducer was positioned in the prostatic region of the urethra. A ligature was secured between the neck of the bladder and urethra to isolate the response of the latter and to avoid any interaction with the bladder. Another ligature was put around the Mikro-tip catheter at the external meatus, to secure the catheter itself. […] Both i.a. injections of NA and stimulations of the hypogastric nerve were repeated 5 minutes after every dosing of test compound with intervals of about 5 minutes between two stimulations. In order to compare the effects of the administered compound, dose/response curves were constructed by computing, at the peak effect, the percent decrease in diastolic blood pressure and the percent inhibition of the increase in urethral pressure induced by both types of stimulation used.

[2] = target: T1, recombinant α1d-adrenoceptor (Homo sapiens, UniProt P25100); test: Radioligand binding assay ([3H]prazosin) on cloned α1-adrenoceptor subtype, membranes of transfected cells
T1 sequence (P25100 1-572): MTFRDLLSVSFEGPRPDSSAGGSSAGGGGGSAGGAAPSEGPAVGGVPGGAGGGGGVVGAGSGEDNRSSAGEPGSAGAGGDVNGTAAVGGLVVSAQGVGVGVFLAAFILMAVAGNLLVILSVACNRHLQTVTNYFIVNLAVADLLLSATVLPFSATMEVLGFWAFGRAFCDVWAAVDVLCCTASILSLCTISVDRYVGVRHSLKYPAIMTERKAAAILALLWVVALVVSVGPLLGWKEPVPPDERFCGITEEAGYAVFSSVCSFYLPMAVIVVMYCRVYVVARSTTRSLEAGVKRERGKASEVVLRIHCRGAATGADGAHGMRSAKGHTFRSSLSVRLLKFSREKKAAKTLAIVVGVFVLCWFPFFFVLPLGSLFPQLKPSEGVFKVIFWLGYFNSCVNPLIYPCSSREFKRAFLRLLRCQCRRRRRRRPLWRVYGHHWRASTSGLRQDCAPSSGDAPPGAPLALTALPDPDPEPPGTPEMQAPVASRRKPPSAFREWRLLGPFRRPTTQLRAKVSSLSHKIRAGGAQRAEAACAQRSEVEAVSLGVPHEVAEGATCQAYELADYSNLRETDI
Experimental: (§2) Determination of affinity for cloned subtypes of the cloned α1-adrenoceptor was performed in membranes from cells transfected by electroporation with DNA expressing the genes encoding each α1-adrenoceptor subtype.
(§3) Non-specific binding was determined in the presence of 10 µM phentolamine. Incubation was stopped by addition of ice-cold Tris buffer and rapid filtration through 0.2%-polyethyleneimine pretreated Schleicher & Schuell GF52 filters. […] The homogenates were centrifuged at 40000 × g × 20 minutes and the membranes were resuspended in a small volume of ice-cold buffer containing Tris 5 mM and EDTA 5 mM (pH 7.4) and immediately frozen and stored at -70°C until use.

[3] = system: diastolic blood pressure (DBP); test: Effect on diastolic blood pressure in anaesthetised dogs, i.v. administration; format: in vivo; conditions: dog, dose inducing a 25% decrease in diastolic blood pressure, one value spanning c3 and c4
Experimental: The experiments were performed according to the method of Imagawa J. et al., J Pharmacol. Methods 22, 103-111 (1989), with substantial modifications, as follows: adult male beagle dogs, weighing 8-10 kg, were anaesthetised with pentobarbital sodium (30 mg/kg i.v. and 2 mg/kg/h i.v.), intubated and spontaneously ventilated with room air. In order to monitor systemic blood pressure (BP), a polyethylene (PE) catheter was introduced into the aortic arch through the left femoral artery. A collateral of the left femoral vein was cannulated for infusion of anaesthetic, and the right femoral vein was cannulated for administration of the compounds. For intraarterial (i.a.) injection of noradrenaline (NA), a PE catheter was introduced into the lower portion of the abdominal aorta via the right external iliac artery. Through such procedure, NA was selectively distributed to the lower urinary tract. A paramedian vertical suprapubic incision extending from the base of the pelvis to the mid-abdominal region was made and the bladder and the prostate were exposed. The bladder was manually emptied with a syringe. […] The distal end of the right or left branch of the nerve was placed on a bipolar platinum electrode. Prostatic urethral pressure was monitored with a Mikro-tip catheter (5F) introduced into the bladder via the external urethral meatus, and withdrawn until the pressure transducer was positioned in the prostatic region of the urethra. A ligature was secured between the neck of the bladder and urethra to isolate the response of the latter and to avoid any interaction with the bladder. Another ligature was put around the Mikro-tip catheter at the external meatus, to secure the catheter itself. The hypogastric nerve stimulation was made with a train of rectangular pulses of 10-15 V, 10-30 Hz, width 5 msec, 8 sec duration.
After a stabilising period following the surgical procedure (30 minutes), in which arterial and prostatic urethral pressure were continuously monitored as basal values, i.a. administration of NA and stimulation of the hypogastric nerve were alternately made at intervals of 10 minutes.
The dose of NA and the parameter of hypogastric nerve stimulation chosen were such as to produce an increase of at least 100% in urethral pressure. The test compounds were administered i.v. in a cumulative manner with intervals of 15-20 min between administrations. Both i.a. injections of NA and stimulations of the hypogastric nerve were repeated 5 minutes after every dosing of test compound with intervals of about 5 minutes between two stimulations. […]

α1a adrenergic receptor = target: T2, α1a adrenergic receptor (Homo sapiens, UniProt P35348); test: Radioligand binding assay ([3H]prazosin) on cloned α1-adrenoceptor subtype, membranes of transfected cells
T2 sequence (P35348 1-466): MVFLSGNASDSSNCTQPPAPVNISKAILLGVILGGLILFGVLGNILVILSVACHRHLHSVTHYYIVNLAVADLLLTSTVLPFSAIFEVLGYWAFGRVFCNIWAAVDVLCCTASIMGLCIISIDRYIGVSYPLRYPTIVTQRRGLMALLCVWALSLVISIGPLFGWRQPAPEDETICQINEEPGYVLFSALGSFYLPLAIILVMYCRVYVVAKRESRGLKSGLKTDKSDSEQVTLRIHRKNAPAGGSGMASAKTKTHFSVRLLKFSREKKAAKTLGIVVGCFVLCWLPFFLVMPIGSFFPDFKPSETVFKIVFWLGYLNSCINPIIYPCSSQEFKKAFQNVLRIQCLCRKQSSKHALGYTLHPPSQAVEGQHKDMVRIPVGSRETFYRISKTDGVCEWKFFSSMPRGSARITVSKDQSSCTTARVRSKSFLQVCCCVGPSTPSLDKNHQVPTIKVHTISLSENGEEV
Experimental: as §2, §3

[4] = target: T3, human 5-HT1A-serotoninergic receptor (Homo sapiens, UniProt P08908); test: Radioligand binding assay ([3H]8-OH-DPAT) on membranes of transfected HeLa cells; conditions: human receptor in HeLa cells, read-out: Affinity (Ki, nM) 5-HT1A
T3 construct: expressed in transfected cells; host or cells: HeLa
T3 sequence (P08908 1-422): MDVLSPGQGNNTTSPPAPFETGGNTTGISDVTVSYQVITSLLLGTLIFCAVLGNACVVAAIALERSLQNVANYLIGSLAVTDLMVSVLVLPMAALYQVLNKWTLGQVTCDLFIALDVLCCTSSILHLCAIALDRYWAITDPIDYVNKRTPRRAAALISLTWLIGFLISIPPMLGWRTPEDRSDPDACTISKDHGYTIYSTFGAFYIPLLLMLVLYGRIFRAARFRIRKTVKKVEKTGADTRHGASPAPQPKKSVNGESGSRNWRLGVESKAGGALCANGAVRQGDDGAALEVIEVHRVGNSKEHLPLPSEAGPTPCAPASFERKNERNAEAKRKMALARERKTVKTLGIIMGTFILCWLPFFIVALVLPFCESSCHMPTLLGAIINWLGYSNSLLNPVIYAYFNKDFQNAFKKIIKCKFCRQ
Source text: Data were expressed as mean of Ki.

α1L adrenoceptor = test: Functional antagonism of noradrenaline-induced contractions of rabbit aorta pretreated with chloroethylclonidine; format: biochemical; conditions: functional affinity, NA-induced contractions
Experimental: Adult male New Zealand rabbits were sacrificed by cervical dislocation. The aorta was removed, placed in Krebs-Henseleit buffer and dissected free of adhering tissue.
Each antagonist concentration was tested using 2-3 aortic rings from different rabbits.
Dose ratios (i.e., the ratio between the concentrations of noradrenaline required to produce half-maximal response in the presence and in the absence of the test antagonist) were calculated at each concentration of the compounds.

[5] = system: urethral contractions (UP) induced by hypogastric-nerve stimulation (HYP); test: Urethral contractions induced by hypogastric-nerve stimulation in anaesthetised dogs, i.v. administration; format: in vivo; conditions: Canis lupus familiaris, iv, dog, dose inhibiting by 50% urethral contractions induced by hypogastric-nerve stimulation, read-out: UP ID50 HYP
Experimental: as §1, with “In order to compare the effects of the administered compound, dose/response curves were constructed by computing, at the peak effect, the percent decrease in diastolic blood pressure and the percent inhibition of the increase in urethral pressure induced by both types of stimulation used.” left out

[6] = read-out: Affinity (Ki, nM) α1d, recombinant receptor, [3H]prazosin

SMILES	Ki [2] [nM]	Ki (α1a adrenergic receptor) [nM]	other results
COc1ccc(Cl)cc1N1CCN(CCCNC(=O)c2c(-c3ccccc3)noc2C)CC1 [Example 1, N-{3-[4-(5-Chloro-2-methoxyphenyl)-1-piperazinyl]-propyl}-5-methyl-3-phenylisoxazole-4-carboxamide]	–	–	ED50 [1]: 3.4 µg/kg; R1 (DBP/NA) [1]: 101.6; Ki [2, 6]: 2.72 nM; DBP ED25 [3]: 345.4 µg/kg
Cc1onc(-c2ccccc2)c1C(=O)NCCCN1CCN(c2cc(Cl)ccc2O)CC1 [Example 2, N-{3-[4-(5-Chloro-2-hydroxyphenyl)-1-piperazinyl]-propyl}-5-methyl-3-phenylisoxazole-4-carboxamide]	25.2	1.16	–
COc1ccc(OCC(F)(F)F)cc1N1CCN(CCCNC(=O)c2c(-c3ccccc3)noc2C)CC1 [Example 4, N-{3-[4-[2-Methoxy-5-(2,2,2-trifluoroethoxy)phenyl]-1-piperazinyl]-propyl}-5-methyl-3-phenylisoxazole-4-carboxamide]	128	17	Ki [4]: > 1000 nM
Cc1onc(-c2ccccc2)c1C(=O)NCCCN1CCN(c2cc(F)ccc2OCC(F)(F)F)CC1 [Example 5, N-{3-[4-[5-Fluoro-2-(2,2,2-trifluoroethoxy)-phenyl]-1-piperazinyl]-propyl}-5-methyl-3-phenylisoxazole-4-carboxamide]	–	–	ED50 [1]: 2.7 µg/kg; R1 (DBP/NA) [1]: 73; pKb (α1L adrenoceptor): 8.79; ED50 [5]: 3.4 µg/kg; DBP ED25 [3]: 197.0 µg/kg
Cc1onc(-c2ccccc2)c1C(=O)NCCCN1CCN(c2ccc(F)cc2OCC(F)(F)F)CC1 [Example 6, N-{3-[4-[4-Fluoro-2-(2,2,2-trifluoroethoxy)-phenyl]-1-piperazinyl]-propyl}-5-methyl-3-phenylisoxazole-4-carboxamide]	–	–	ED50 [1]: 2.4 µg/kg; R1 (DBP/NA) [1]: 82; Ki [2, 6]: 18.9 nM; ED50 [5]: 4.5 µg/kg; DBP ED25 [3]: 196.7 µg/kg
Cc1onc(-c2ccccc2)c1C(=O)NCCCN1CCN(c2cc(Cl)ccc2OS(=O)(=O)C(F)(F)F)CC1 [Example 7, N-{3-[4-[(5-Chloro-2-trifluoromethanesulphonyloxy)-phenyl]-1-piperazinyl]-propyl}-5-methyl-3-phenylisoxazole-4-carboxamide]	38.9	0.918	Ki [4]: 1000 nM

Further lines, with some results ahead:

Ki [2] [nM]	Ki (α1a adrenergic receptor) [nM]	SMILES	other results
25.8	0.11	O=C(NCCCN1CCN(c2ccc(F)cc2OCC(F)(F)F)CC1)c1conc1-c1ccc(F)cc1 [Example 8, 3-(4-Fluorophenyl)-N-{3-[4-[4-fluoro-2-(2,2,2-trifluoroethoxy)-phenyl]-1-piperazinyl]-propyl}-isoxazole-4-carboxamide]	–
6.15	0.4	Cc1onc(-c2c(F)cccc2Cl)c1C(=O)NCCCN1CCN(c2ccc(F)cc2OCC(F)(F)F)CC1 [Example 9, 3-(2-Chloro-6-fluorophenyl)-N-{3-[4-[4-fluoro-2-(2,2,2-trifluoroethoxy)-phenyl]-1-piperazinyl]-propyl}-5-methylisoxazole-4-carboxamide]	–
38.6	2.28	Cc1onc(-c2c(Cl)cccc2Cl)c1C(=O)NCCCN1CCN(c2ccc(F)cc2OCC(F)(F)F)CC1 [Example 10, 3-(2,6-Dichlorophenyl)-N-{3-[4-[4-fluoro-2-(2,2,2-trifluoroethoxy)-phenyl]-1-piperazinyl]-propyl}-5-methylisoxazole-4-carboxamide.]	–
4.66	0.12	Cc1onc(-c2ccccc2Cl)c1C(=O)NCCCN1CCN(c2ccc(F)cc2OCC(F)(F)F)CC1 [Example 11]	–
2.19	0.16	Cc1onc(-c2c(F)cccc2Cl)c1C(=O)NCCCN1CCN(c2ccccc2OCC(F)(F)F)CC1 [Example 12, 3-(2-Chloro-6-fluorophenyl)-5-methyl-N-{3-[4-[2-(2,2,2-trifluoroethoxy)phenyl)-1-piperazinyl]-propyl}-isoxazole-4-carboxamide]	–
